Read-outs that look alike come from different tables or passages of the source.
Columns and labels:
[1] = molecular target: FLNA pentapeptide of SEQ ID NO: 1 (Bn-VAKGL) (Homo sapiens, UniProt P21333); assay: FITC-NLX-based FLNA screening assay (inhibition of FITC-naloxone binding to Bn-VAKGL on streptavidin plates); conditions: 10 nM FITC-NLX
mu opiate receptor (MOR) = assay: MOR agonist activity using [35S]GTPγS binding assay in striatal membranes; format: biochemical; conditions: for MOR agonist activity ([35S]GTPγS binding), FLNA-Binding Compound as Agonist 1 μM + BFNA: 1 μM compound + 1 μM β-funaltrexamine
Method in brief: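 Striatal membranes (200 μg) were preincubated 5 min at 30 °C in HEPES pH 7.5 with 100 mM NaCl, 1 mM MgCl2 and 0.5 nM [35S]GTPγS, then 5 min more with 0.1–10 μM compound. Gαo was immunoprecipitated and bound radioactivity counted by scintillation.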

[2] = system: glioblastoma cells (U-87 MG); assay: [3H]glucose uptake; format: cell-based, human; conditions: C0105 0.1-5 nM, other compounds 1 and 5 nM, twice daily for 4 days
Method: (§1) FIG. 1A through FIG. 1M illustrate the effects of various FLNA-binding compounds on glucose uptake in glioblastoma, melanoma, breast and pancreatic cancer cell lines, along with appropriate non-cancerous primary cell controls. Cells were grown in the absence or presence of 0.1-5 nM indicated compounds for 4 days. Following brief washes with PBS, cells were serum-deprived for 4 hours and then incubated in oxygenated Kreb's Ringer containing 0.1 μCi [^3H]glucose for 2 hours under constant oxygenation. The reaction was terminated by removal of the incubation medium, and cells were washed and scraped off to determine the amounts of [^3H]glucose in cells by scintillation spectrometry. […] N=5-6. […] . […] . To determine the effect of Compound C0105 on glucose utilization, the cancer and primary normal cells were plated extremely thinly (10%). Once cells attached, Compound C0105 was added at 0.1, 0.5, 1 or 5 nM in the medium twice daily (6 hours apart) for 4 days. The cells were serum-deprived (glucose deprived) for 2 hours. Cells were then rinsed with 1 ml PBS and glucose uptake was assessed by contacting the cells with [^3H]glucose (0.01 uCi/l ml) in Kreb's Ringer for 2 hours. Cells were then rinsed with 1 ml PBS 3 times, scraped off and their glucose content counted by liquid scintillation spectrophotometry.
(§2) Both glioblastoma and melanoma cells were plated extremely thinly. Once cells attached, Compound C0105 was added at 0.1, 0.5, 1 and 5 nM, whereas the other compounds were present at 1 and 5 nM in the medium twice daily (6 hours apart) for 4 days. The cells were serum-deprived (glucose deprived) for 2 hours. Cells were then rinsed with 1 ml PBS and glucose uptake was assessed by contacting the cells with [3H]glucose (0.01 uCi/l ml) of Kreb's Ringer for 2 hours. Cells were then rinsed with 1 ml PBS 3 times, scraped off and their glucose contents counted by liquid scintillation spectrophotometry.

melanoma cells (A2058) = assay: [3H]glucose uptake; format: cell-based, human; conditions: C0105 0.1-5 nM, other compounds 1 and 5 nM, twice daily for 4 days
Method: as §1, §2

primary lung fibroblasts = assay: [3H]glucose uptake; format: cell-based, human; conditions: C0105 0.1-5 nM, other compounds 1 or 5 nM; 4 days
Method: as §1, §2

[3] = system: non-small cell lung cancer cell lines; assay: Glucose utilization; format: cell-based, human; conditions: data not shown
Method: To determine the effect of Compound C0105 on glucose utilization, the cancer and primary normal cells were plated extremely thinly (10%). Once cells attached, Compound C0105 was added at 0.1, 0.5, 1 or 5 nM in the medium twice daily (6 hours apart) for 4 days. The cells were serum-deprived (glucose deprived) for 2 hours. Cells were then rinsed with 1 ml PBS and glucose uptake was assessed by contacting the cells with [^3H]glucose (0.01 uCi/l ml) in Kreb's Ringer for 2 hours. Cells were then rinsed with 1 ml PBS 3 times, scraped off and their glucose content counted by liquid scintillation spectrophotometry.
. Primary lung fibroblast cells were used as control, non-cancerous cells to illustrate the difference in effects observed (FIG. 1C, FIGS. 1H-1I).

sigma σ1 receptor = sigma σ1 receptor (Homo sapiens, UniProt Q99720); assay: Standard receptor binding assay; conditions: 10 μM concentration
[4] = system: BxPC3 pancreatic cancer cell implants; assay: Xenograft tumor size study; conditions: gemcitabine at 50 mg/kg i.p. b.i.d.
more than 65 receptors = assay: Standard binding assay on more than 65 receptors; conditions: 10 μM concentration
adrenergic α1 receptors = assay: Standard receptor binding assay; conditions: 10 μM concentration
[5] = FLNA-binding compound 0.01 μM, read-out: Percent Binding Inhibition
[6] = FLNA-binding compound 0.1 μM, read-out: Percent Binding Inhibition
[7] = FLNA-binding compound 1 μM, read-out: Percent Binding Inhibition
[8] = Series C-2, 0.1 μM compound, relative to DAMGO
[9] = Series C-2, 0.1 μM compound, [35S]GTPγS binding to Gαo, striatal membranes
[10] = Series C-2, 1 μM compound + 1 μM β-FNA
[11] = Series C-2, 1 μM compound + β-FNA, relative to DAMGO + BFNA
[12] = Series C-2, 1 μM compound, relative to DAMGO
[13] = Series C-2, 1 μM compound, [35S]GTPγS binding to Gαo, striatal membranes
[14] = 0.1 μM compound relative to DAMGO
[15] = 1 μM compound + BFNA relative to DAMGO + BFNA
[16] = 1 μM compound relative to DAMGO
[17] = read-out: Percent Binding Inhibition, FLNA-binding compound 0.01 μM
[18] = read-out: Percent Binding Inhibition, FLNA-binding compound 0.1 μM
[19] = read-out: Percent Binding Inhibition, FLNA-binding compound 1 μM

Sequence of sigma σ1 receptor (Q99720 whole entry): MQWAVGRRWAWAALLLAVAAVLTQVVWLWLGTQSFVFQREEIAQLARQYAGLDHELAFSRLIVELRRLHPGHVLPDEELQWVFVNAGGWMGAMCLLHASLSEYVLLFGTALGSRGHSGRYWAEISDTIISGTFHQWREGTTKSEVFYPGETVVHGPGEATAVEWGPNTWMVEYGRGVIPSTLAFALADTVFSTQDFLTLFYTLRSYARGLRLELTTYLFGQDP

Compound | inhibition at 0.01 µM [1, 5] [%] | inhibition at 0.1 µM [1, 6] [%] | inhibition at 1 µM [1, 7] [%] | % DAMGO (0.1 μM) (mu opiate receptor (MOR); [8]) [%] | MOR agonist activity, percent [35S]GTPγS binding at the stated compound concentration (mu opiate receptor (MOR); [9]) [%] | MOR agonist activity, percent [35S]GTPγS binding at the stated compound concentration (mu opiate receptor (MOR); [10]) [%] | % DAMGO + BFNA (mu opiate receptor (MOR); [11]) [%] | % DAMGO (1 μM) (mu opiate receptor (MOR); [12]) [%] | MOR agonist activity, percent [35S]GTPγS binding at the stated compound concentration (mu opiate receptor (MOR); [13]) [%] | Glucose utilization [2] | Glucose utilization (melanoma cells (A2058)) | Glucose uptake / glucose content (primary lung fibroblasts) | Glucose utilization [3] | MOR agonist activity ([35S]GTPγS binding), FLNA-Binding Compound as Agonist 0.1 μM (mu opiate receptor (MOR); 0.1 μM compound) [%] | % DAMGO (0.1 μM) (mu opiate receptor (MOR); [14]) [%] | MOR agonist activity ([35S]GTPγS binding), FLNA-Binding Compound as Agonist 1 μM (mu opiate receptor (MOR); 1 μM compound) [%] | MOR agonist activity ([35S]GTPγS binding), FLNA-Binding Compound as Agonist 1 μM + BFNA (mu opiate receptor (MOR)) [%] | % DAMGO + BFNA (mu opiate receptor (MOR); [15]) [%] | % DAMGO (1 μM) (mu opiate receptor (MOR); [16]) [%] | also measured
Cc1ccc(S(=O)(=O)N2CCOC23CCN(CC2CC2)CC3)cc1 [Compound C0134M] | 55.7 | 60.5 | 61.9 | 94.6 | 158.5 | 46.6 | 98.1 | 93.3 | 207.3 | decreased the elevated glucose utilization | decreased the elevated glucose utilization | no significant inhibition in glucose content | decreased the elevated glucose utilization | – | – | – | – | – | – | MOR agonist activity, FLNA-Binding Compound as Agonist 0.1 μM (preliminary study) (mu opiate receptor (MOR); 0.1 μM, average of two runs): 150.7%; MOR agonist activity, FLNA-Binding Compound as Agonist 1 μM + βNFA (preliminary study) (mu opiate receptor (MOR); 1 μM + βNFA, average of two runs): 53.2%; MOR agonist activity, FLNA-Binding Compound as Agonist 1 μM (preliminary study) (mu opiate receptor (MOR); 1 μM, average of two runs): 224.0%
O=C1CNC2(CCN(CC3CC3)CC2)N1Cc1ccccc1 [Compound C0124M] | 47.7 | 52.2 | 58.7 | – | – | – | – | – | – | decreased the elevated glucose utilization | decreased the elevated glucose utilization | no significant inhibition in glucose content | decreased the elevated glucose utilization | – | – | – | – | – | – | –
CC1CN(CC(O)COc2cccc(F)c2)CC(C)O1 (stereo not drawn) [Compound A0049] | 46.2 | 49.4 | 49.3 | – | – | – | – | – | – | – | – | – | – | 232.3 | 118.4 | 370.3 | 107.1 | 144.9 | 134.2 | Activity at sigma σ1 receptor (sigma σ1 receptor): antagonist
CC(=O)c1ccc(S(=O)(=O)N2CC(CN(C)C)OC23CCN(C)CC3)cc1 (stereo not drawn) [Compound C0108M] | – | – | – | 108.7 | 205.6 | 76.9 | 158.6 | 104.1 | 258.5 | decreased the elevated glucose utilization | decreased the elevated glucose utilization | no significant inhibition in glucose content | decreased the elevated glucose utilization | – | – | – | – | – | – | inhibition at 0.01 µM [1, 17]: 54.6%; inhibition at 0.1 µM [1, 18]: 61.4%; inhibition at 1 µM [1, 19]: 68.7%
Nc1ccn([C@@H]2O[C@H](CO)[C@@H](O)C2(F)F)c(=O)n1 [gemcitabine] | – | – | – | – | – | – | – | – | – | – | – | – | – | – | – | – | – | – | – | Tumor growth [4]: slowed growth but did not shrink BxPC3 xenograft tumors
O=C1CN(Cc2ccccc2)C2(CCN(S(=O)(=O)c3cc(Cl)c(O)c(Cl)c3)CC2)N1 [Compound C0139M] | – | – | – | – | – | – | – | – | – | decreased the elevated glucose utilization | decreased the elevated glucose utilization | no significant inhibition in glucose content | decreased the elevated glucose utilization | – | – | – | – | – | – | % DAMGO (0.1 μM) (mu opiate receptor (MOR); Series C-1, 0.1 μM compound, relative to DAMGO): 106.2%; % DAMGO + BFNA (mu opiate receptor (MOR); Series C-1, 1 μM compound + β-FNA, relative to DAMGO + BFNA): 129.8%; % DAMGO (1 μM) (mu opiate receptor (MOR); Series C-1, 1 μM compound, relative to DAMGO): 102.2%; Binding to any of more than 65 assayed receptors (more than 65 receptors): no significant binding
COc1c2c(cc3c1C(CC(=O)Cc1ccccc1F)[N+](C)(C)CC3)OCO2 (stereo not drawn) [Compound B0055] | – | – | – | – | – | – | – | – | – | decreased the elevated glucose utilization | decreased the elevated glucose utilization | no significant inhibition in glucose content | decreased the elevated glucose utilization | – | – | – | – | – | – | % DAMGO (0.1 μM) (mu opiate receptor (MOR); Series B, 0.1 μM compound, relative to DAMGO): 91.8%; MOR agonist activity, percent [35S]GTPγS binding at the stated compound concentration (mu opiate receptor (MOR); Series B, 0.1 μM compound, [35S]GTPγS binding to Gαo, striatal membranes): 162.1%; MOR agonist activity, percent [35S]GTPγS binding at the stated compound concentration (mu opiate receptor (MOR); Series B, 1 μM compound + 1 μM β-FNA): 117.5%; % DAMGO + BFNA (mu opiate receptor (MOR); Series B, 1 μM compound + β-FNA, relative to DAMGO + BFNA): 446.8%; % DAMGO (1 μM) (mu opiate receptor (MOR); Series B, 1 μM compound, relative to DAMGO): 133.1%; MOR agonist activity, percent [35S]GTPγS binding at the stated compound concentration (mu opiate receptor (MOR); Series B, 1 μM compound, [35S]GTPγS binding to Gαo, striatal membranes): 338.5%
COc1ccc(OCC(O)CN2CCc3ccccc3C2)cc1 (stereo not drawn) [Compound A0053] | – | – | – | – | – | – | – | – | – | decreased the elevated glucose utilization | decreased the elevated glucose utilization | no significant inhibition in glucose content | decreased the elevated glucose utilization | 78.5 | 46.5 | 118.2 | 15.1 | 46.2 | 47.5 | inhibition at 0.01 µM [1, 17]: 34.8%; inhibition at 0.1 µM [1, 18]: 40%; inhibition at 1 µM [1, 19]: 46.9%
CC1CCC(C(C)C)C(OCC(CN2CC(C)OC(C)C2)NCc2ccccc2)C1 (stereo not drawn) [Compound A0033] | 46.4 | 51.8 | 56.5 | – | – | – | – | – | – | decreased the elevated glucose utilization | decreased the elevated glucose utilization | no significant inhibition in glucose content | decreased the elevated glucose utilization | 155.8 | 79.4 | 254.6 | 118.2 | 159.9 | 92.2 | –
COc1ccc(S(=O)(=O)N2CCOC23CCNCC3)cc1 [Compound C0027] | 50.8 | 61.2 | 63.8 | 121.3 | 233.2 | 72.2 | 164.5 | 115.0 | 313.9 | – | – | – | – | – | – | – | – | – | – | Activity at sigma σ1 receptor (sigma σ1 receptor): antagonist; Activity at adrenergic α1 receptors (adrenergic α1 receptors): antagonist
